In the NIST ThermoML archive (doi:10.1021/acs.jced.5b00503):
± gives the expanded uncertainty stated by the source.

Key:
[1] = 101 kPa, Liquid, Falling or rolling sphere viscometry
[2] = xn = mol fraction of the nth substance listed; conditions: 101 kPa, Liquid, Falling or rolling sphere viscometry

For CCCCCC[n+]1ccn(C)c1.O=S(=O)([N-]S(=O)(=O)C(F)(F)F)C(F)(F)F, the viscosity ([1]; 288.2 K) was 117.8 ± 5.8 mPa·s, the viscosity ([1]; 298.2 K) was 70.4 ± 3 mPa·s and the viscosity ([1]; 308.2 K) was 45.4 ± 1.9 mPa·s. The viscosity ([1]; 318.2 K) was 31.23 ± 1.3 mPa·s.
CCCCCC[n+]1ccn(C)c1.O=S(=O)([N-]S(=O)(=O)C(F)(F)F)C(F)(F)F + ClC(Cl)Cl gave a viscosity ([2]; 288.2 K, x1 = 0.074) of 1.701 ± 0.1 mPa·s, a viscosity ([2]; 288.2 K, x1 = 0.186) of 4.556 ± 0.28 mPa·s and a viscosity ([2]; 288.2 K, x1 = 0.266) of 8.57 ± 0.37 mPa·s. It also gave a viscosity ([2]; 288.2 K, x1 = 0.418) of 20.36 ± 0.86 mPa·s, a viscosity ([2]; 288.2 K, x1 = 0.511) of 30.16 ± 1.3 mPa·s and a viscosity ([2]; 288.2 K, x1 = 0.565) of 38 ± 1.6 mPa·s. It also gave a viscosity ([2]; 288.2 K, x1 = 0.651) of 50.6 ± 2.1 mPa·s, a viscosity ([2]; 288.2 K, x1 = 0.707) of 60.6 ± 2.6 mPa·s and a viscosity ([2]; 288.2 K, x1 = 0.805) of 78.4 ± 3.5 mPa·s. The viscosity ([2]; 288.2 K, x1 = 0.906) was 95.7 ± 4.5 mPa·s, the viscosity ([2]; 288.2 K, x1 = 1) was 117.8 ± 5.8 mPa·s and the viscosity ([2]; 298.2 K, x1 = 0.074) was 1.462 ± 0.089 mPa·s. It also gave a viscosity ([2]; 298.2 K, x1 = 0.186) of 3.667 ± 0.22 mPa·s, a viscosity ([2]; 298.2 K, x1 = 0.266) of 6.63 ± 0.28 mPa·s and a viscosity ([2]; 298.2 K, x1 = 0.418) of 14.63 ± 0.62 mPa·s. For the same molecule, the viscosity ([2]; 298.2 K, x1 = 0.511) was 20.92 ± 0.89 mPa·s, the viscosity ([2]; 298.2 K, x1 = 0.565) was 25.55 ± 1.1 mPa·s and the viscosity ([2]; 298.2 K, x1 = 0.651) was 33.3 ± 1.4 mPa·s. It also gave a viscosity ([2]; 298.2 K, x1 = 0.707) of 38.9 ± 1.7 mPa·s, a viscosity ([2]; 298.2 K, x1 = 0.805) of 49.6 ± 2.1 mPa·s and a viscosity ([2]; 298.2 K, x1 = 0.906) of 59.1 ± 2.5 mPa·s. The viscosity ([2]; 298.2 K, x1 = 1) was 70.4 ± 3 mPa·s, the viscosity ([2]; 308.2 K, x1 = 0.074) was 1.265 ± 0.077 mPa·s and the viscosity ([2]; 308.2 K, x1 = 0.186) was 3.002 ± 0.18 mPa·s. It also gave a viscosity ([2]; 308.2 K, x1 = 0.266) of 5.25 ± 0.22 mPa·s, a viscosity ([2]; 308.2 K, x1 = 0.418) of 10.96 ± 0.46 mPa·s and a viscosity ([2]; 308.2 K, x1 = 0.511) of 15.19 ± 0.64 mPa·s. It also gave a viscosity ([2]; 308.2 K, x1 = 0.565) of 18.18 ± 0.77 mPa·s, a viscosity ([2]; 308.2 K, x1 = 0.651) of 23.1 ± 1 mPa·s and a viscosity ([2]; 308.2 K, x1 = 0.707) of 26.6 ± 1.1 mPa·s. For the same molecule, the viscosity ([2]; 308.2 K, x1 = 0.805) was 33.7 ± 1.4 mPa·s, the viscosity ([2]; 308.2 K, x1 = 0.906) was 39.5 ± 1.7 mPa·s and the viscosity ([2]; 308.2 K, x1 = 1) was 45.4 ± 1.9 mPa·s. The viscosity ([2]; 318.2 K, x1 = 0.074) was 1.104 ± 0.067 mPa·s, the viscosity ([2]; 318.2 K, x1 = 0.186) was 2.5 ± 0.15 mPa·s and the viscosity ([2]; 318.2 K, x1 = 0.266) was 4.29 ± 0.18 mPa·s. The viscosity ([2]; 318.2 K, x1 = 0.418) was 8.5 ± 0.36 mPa·s, the viscosity ([2]; 318.2 K, x1 = 0.511) was 11.49 ± 0.48 mPa·s and the viscosity ([2]; 318.2 K, x1 = 0.565) was 13.58 ± 0.57 mPa·s. It also gave a viscosity ([2]; 318.2 K, x1 = 0.651) of 16.97 ± 0.72 mPa·s, a viscosity ([2]; 318.2 K, x1 = 0.707) of 19.16 ± 0.81 mPa·s and a viscosity ([2]; 318.2 K, x1 = 0.805) of 24 ± 1 mPa·s. It also gave a viscosity ([2]; 318.2 K, x1 = 0.906) of 27.7 ± 1.2 mPa·s and a viscosity ([2]; 318.2 K, x1 = 1) of 31.23 ± 1.3 mPa·s.
